Reference: ChEMBL document CHEMBL1144797, “Synthesis and antimicrobial activity of 7 alpha-amino-23,24-bisnor-5 alpha-cholan-22-ol derivatives” (Bioorg Med Chem Lett, 2008)
≈ marks a conversion by molar mass, not a printed value.

How the values were obtained:
[1] = tested on: Staphylococcus aureus; test: Antimicrobial activity against Staphylococcus aureus 503; format: functional
[2] = tested on: Streptococcus pyogenes; test: Antimicrobial activity against Streptococcus pyogenes 77A; format: functional
[3] = tested on: Streptococcus pyogenes; test: Antimicrobial activity against Streptococcus pyogenes 308A; format: functional
[4] = tested on: Salmonella typhimurium; test: Antimicrobial activity against Salmonella Typhimurium; format: functional, Salmonella enterica subsp. enterica serovar Typhimurium; settings: Salmonella enterica
[5] = tested on: Pseudomonas aeruginosa; test: Antimicrobial activity against Pseudomonas aeruginosa 9027; format: functional
[6] = tested on: Escherichia coli; test: Antimicrobial activity against Escherichia coli DC2; format: functional
[7] = tested on: Pseudomonas aeruginosa; test: Antimicrobial activity against Pseudomonas aeruginosa 1771M; format: functional
[8] = tested on: Enterobacter cloacae; test: Antimicrobial activity against Enterobacter cloacae 1321E; format: functional
[9] = Hemolytic activity against RBC at 100 ug/ml; format: ADME, cell-based; settings: erythrocyte

SMILES | MIC [1] [µg/mL] | MIC [2] [µg/mL] | MIC [3] [µg/mL] | MIC [4] [µg/mL] | MIC [5] [µg/mL] | MIC [6] [µg/mL] | MIC [7] [µg/mL] | MIC [8] [µg/mL] | Activity [9]
C[C@H](CO)[C@H]1CC[C@H]2[C@@H]3[C@H](F)C[C@H]4C[C@@H](NCCCNCCCCN)CC[C@]4(C)[C@H]3CC[C@]12C.Cl.Cl.Cl | 6.3 | 6.3 | 6.3 | > 100 | 6.3 | 6.3 | 3.1 | > 100 | –
C[C@H](CO)[C@H]1CC[C@H]2[C@@H]3[C@H](N)C[C@H]4C[C@@H](O)CC[C@]4(C)[C@H]3CC[C@]12C.Cl | 12.5 | 12.5 | 6.3 | > 100 | > 100 | 25 | > 100 | > 100 | –
C[C@H](CO)[C@H]1CC[C@H]2[C@@H]3[C@H](N)C[C@H]4C[C@@H](N)CC[C@]4(C)[C@H]3CC[C@]12C.Cl.Cl | 6.3 | 6.3 | 6.3 | 50 | > 100 | 25 | 50 | 50 | –
C[C@H](COS(=O)(=O)O)[C@H]1CC[C@H]2[C@@H]3[C@H](N)C[C@H]4C[C@H](NCCCNCCCCN)CC[C@]4(C)[C@H]3CC[C@]12C.Cl.Cl.Cl.Cl | 6.3 | 12.5 | 6.3 | > 100 | 12.5 | 25 | 50 | > 100 | –
C[C@H](COS(=O)(=O)O)[C@H]1CC[C@H]2[C@@H]3[C@H](N)C[C@H]4C[C@@H](NCCCNCCCCN)CC[C@]4(C)[C@H]3CC[C@]12C.Cl.Cl.Cl.Cl | 25 | 50 | 25 | > 100 | > 100 | > 100 | > 100 | > 100 | –
C[C@H](CO)[C@H]1CC[C@H]2[C@@H]3[C@H](O)C[C@H]4C[C@@H](NCCCNCCCCN)CC[C@]4(C)[C@H]3CC[C@]12C.Cl.Cl.Cl | 12.5 | 25 | 25 | 50 | 12.5 | 25 | 25 | 50 | –
C[C@H](CO)[C@H]1CC[C@H]2[C@@H]3[C@H](N)C[C@H]4C[C@H](O)CC[C@]4(C)[C@H]3CC[C@]12C.Cl | 3.1 | 6.3 | 3.1 | > 100 | > 100 | 12.5 | > 100 | > 100 | Active
C[C@H](CO)[C@H]1CC[C@H]2[C@@H]3[C@H](N)C[C@H]4C[C@H](NCCCNCCCCNCCCN)CC[C@]4(C)[C@H]3CC[C@]12C.Cl.Cl.Cl.Cl.Cl | 12.5 | 25 | 6.3 | > 100 | 12.5 | 50 | 25 | > 100 | –

Continued, in another order:

MIC [1] [µg/mL] | MIC [2] [µg/mL] | MIC [3] [µg/mL] | MIC [4] [µg/mL] | MIC [5] [µg/mL] | MIC [6] [µg/mL] | MIC [7] [µg/mL] | MIC [8] [µg/mL] | SMILES | Activity [9]
100 (≈ 300 µM) | 100 (≈ 300 µM) | 100 (≈ 300 µM) | 100 (≈ 300 µM) | 100 (≈ 300 µM) | 100 (≈ 300 µM) | 100 (≈ 300 µM) | 100 (≈ 300 µM) | CC(C)[C@H]1CC[C@H]2[C@@H]3[C@H](O)C[C@H]4CC(N)CC[C@]4(C)[C@H]3CC[C@]12C (stereo not given in full) | –
3.1 | 3.1 | 1.6 | 25 | 50 | 12.5 | 25 | 50 | C[C@H](CO)[C@H]1CC[C@H]2[C@@H]3[C@H](N)C[C@H]4C[C@H](N)CC[C@]4(C)[C@H]3CC[C@]12C.Cl.Cl | –
12.5 | 25 | 12.5 | > 100 | 25 | 50 | > 100 | > 100 | C[C@H](CO)[C@H]1CC[C@H]2[C@@H]3[C@H](N)C[C@H]4C[C@@H](NCCCNCCCCN)CC[C@]4(C)[C@H]3CC[C@]12C.Cl.Cl.Cl.Cl | –
12.5 | 25 | 12.5 | > 100 | 25 | > 100 | > 100 | > 100 | C[C@H](CO)[C@H]1CC[C@H]2[C@@H]3[C@H](N)C[C@H]4C[C@H](NCCCNCCCCN)CC[C@]4(C)[C@H]3CC[C@]12C.Cl.Cl.Cl.Cl | –
6.3 | 25 | 3.1 | > 100 | 6.3 | 50 | 50 | > 100 | C[C@H](CO)[C@H]1CC[C@H]2[C@@H]3[C@H](N)C[C@H]4C[C@@H](NCCCNCCCCNCCCN)CC[C@]4(C)[C@H]3CC[C@]12C.Cl.Cl.Cl.Cl.Cl | –
